Literature values as cited in patent publication US20260034185A1, “POLYPODYIUM LEUCOTOMOS AND LARIX DECIDUA FOR USE IN THE PREVENTION OF DAMAGE FROM UVA, UVB, UVC AND/OR IR RAYS” (Unifarco S.p.A., priority 2022, published 2026).

Molecular target: T1, caspase-1 (Homo sapiens, UniProt P29466)
T1 construct: literature Promega G9951
T1 sequence (P29466 120-297 limits assumed): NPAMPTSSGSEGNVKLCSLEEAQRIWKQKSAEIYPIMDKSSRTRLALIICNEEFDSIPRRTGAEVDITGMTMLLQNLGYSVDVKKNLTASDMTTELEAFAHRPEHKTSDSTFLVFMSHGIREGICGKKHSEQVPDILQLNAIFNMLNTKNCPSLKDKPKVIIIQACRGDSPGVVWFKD
T1 sequence (P29466 317-404 limits assumed): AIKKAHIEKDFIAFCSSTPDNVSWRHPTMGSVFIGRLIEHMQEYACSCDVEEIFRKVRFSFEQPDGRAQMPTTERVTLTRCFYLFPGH
Details: inhibitor included in the Caspase-Glo 1 kit; does not substantially inhibit cross-reactive caspases

- inhibition of caspase-1 activity: 99%
Substance: Ac-YVAD-CHO
